Test results as given in patent publication US6403794B2, “Substituted 2-amino-4-alkylamino-1,3,5-triazines as herbicides” (Bayer Aktiengesellschaft, priority 1996, dated 2002).
Read-outs that look alike come from different tables or passages of the source.

Assays:
Assay type in all cases: in vivo
[1] = test system: Abutilon; test: Post-emergence test; conditions: greenhouse, 1000 g of ai./ha, after three weeks
Description: (§1) Solvent: 5 parts by weight of acetone
(§2) Emulsifier: 1 part by weight of alkylaryl polyglycol ether
(§3) To produce a suitable preparation of active compound, 1 part by weight of active compound is mixed with the stated amount of solvent, the stated amount of emulsifier is added and the concentrate is diluted with water to the desired concentration.
(§4) Test plants which have a height of 5-15 cm are sprayed with the preparation of active compound such that the particular amounts of active compounds desired are applied per unit area. The concentration of the spray liquor is chosen so that the particular amounts of active compound desired are applied in 1000 l of water/ha.
(§5) After three weeks, the degree of damage to the plants is scored visually in % damage, in comparison to the untreated control.
(§6) 0%=no effect (like untreated control)

[2] = test system: Alopecurus; test: Post-emergence test; conditions: greenhouse, 1000 g of ai./ha, after three weeks
Description: as §1, §2, §3, §4, §5, §6

[3] = test system: Amaranthus; test: Post-emergence test; conditions: for pest or weed control at 500 g/ha / pest or weed control at 1000 g/ha: Amaranthus, 504 h, read-out: degree of damage to the plants (% damage), Amaranthus; for pest or weed control at 500 g/ha: 500 g of ai./ha
Description: as §1, §2, §3, §4, §5, §6

[4] = test system: Galium; test: Post-emergence test; conditions: greenhouse, 1000 g of ai./ha, after three weeks
Description: as §1, §2, §3, §4, §5, §6

[5] = test system: Setaria; test: Post-emergence test; conditions: for pest or weed control at 500 g/ha / pest or weed control at 1000 g/ha: Setaria, 504 h, read-out: degree of damage to the plants (% damage), Setaria; for pest or weed control at 500 g/ha: 500 g of ai./ha
Description: as §1, §2, §3, §4, §5, §6

[6] = test system: Xanthium; test: Post-emergence test; conditions: greenhouse, 1000 g of ai./ha, after three weeks
Description: as §1, §2, §3, §4, §5, §6

[7] = test system: weeds; test: Post-emergence test
Description: as §1, §2, §3, §4, §5, §6

[8] = test system: Echinochloa; test: Post-emergence test; conditions: greenhouse, 500 g of ai./ha, after three weeks
Description: as §1, §2, §3, §4, §5, §6

[9] = test system: Ipomoea; test: Post-emergence test; conditions: greenhouse, 500 g of ai./ha, after three weeks
Description: as §1, §2, §3, §4, §5, §6

[10] = test system: Polygonum; test: Post-emergence test; conditions: greenhouse, 500 g of ai./ha, after three weeks
Description: as §1, §2, §3, §4, §5, §6

[11] = test system: Solanum; test: Post-emergence test; conditions: greenhouse, 500 g of ai./ha, after three weeks
Description: as §1, §2, §3, §4, §5, §6

[12] = test system: Wheat; test: Post-emergence test; conditions: greenhouse, 500 g of ai./ha, after three weeks
Description: as §1, §2, §3, §4, §5, §6

[13] = test system: Abutilon; test: Pre-emergence test; conditions: for pest or weed control at 500 g/ha / pest or weed control at 1000 g/ha: Abutilon, 504 h, read-out: degree of damage to the plants (% damage), Abutilon; for pest or weed control at 500 g/ha: 500 g of ai./ha
Description: as §1, §2, §3
(§7) Seeds of the test plants are sown in normal soil. After about 24 hours, the soil is watered with the preparation of active compound. The amount of water per unit area is advantageously kept constant. The concentration of active compound in the preparation is immaterial, only the application rate of active compound per unit area matters.
(§8) After three weeks, the degree of damage to the plants is scored visually in % damage in comparison to the development of the untreated control.
as §6

[14] = test system: Amaranthus; test: Pre-emergence test; conditions: for pest or weed control at 500 g/ha / pest or weed control at 1000 g/ha: Amaranthus, 504 h, read-out: degree of damage to the plants (% damage), Amaranthus; for pest or weed control at 500 g/ha: 500 g of ai./ha
Description: as §1, §2, §3, §7, §8, §6

[15] = test system: Datura; test: Pre-emergence test; conditions: greenhouse, 500 g of ai./ha, after three weeks
Description: as §1, §2, §3, §7, §8, §6

[16] = test system: Digitaria; test: Pre-emergence test; conditions: greenhouse, 500 g of ai./ha, after three weeks
Description: as §1, §2, §3, §7, §8, §6

[17] = test system: Echinochloa; test: Pre-emergence test; conditions: greenhouse, 500 g of ai./ha, after three weeks
Description: as §1, §2, §3, §7, §8, §6

[18] = test system: Polygonum; test: Pre-emergence test; conditions: greenhouse, 500 g of ai./ha, after three weeks
Description: as §1, §2, §3, §7, §8, §6

[19] = test system: Veronica; test: Pre-emergence test; conditions: greenhouse, 500 g of ai./ha, after three weeks
Description: as §1, §2, §3, §7, §8, §6

[20] = test system: Wheat; test: Pre-emergence test; conditions: greenhouse, 500 g of ai./ha, after three weeks
Description: as §1, §2, §3, §7, §8, §6

[21] = test system: weeds; test: Pre-emergence test
Description: as §1, §2, §3, §7, §8, §6

[22] = test system: Alopecurus; test: Pre-emergence test; conditions: greenhouse, 1000 g of ai./ha, after three weeks
Description: as §1, §2, §3, §7, §8, §6

[23] = test system: Galium; test: Pre-emergence test; conditions: greenhouse, 1000 g of ai./ha, after three weeks
Description: as §1, §2, §3, §7, §8, §6

[24] = test system: Setaria; test: Pre-emergence test; conditions: greenhouse, 1000 g of ai./ha, after three weeks
Description: as §1, §2, §3, §7, §8, §6

[25] = greenhouse, 1000 g of ai./ha, after three weeks

Row | SMILES | degree of damage to the plants (% damage), Abutilon [1] | degree of damage to the plants (% damage), Alopecurus [2] | degree of damage to the plants (% damage), Galium [4] | degree of damage to the plants (% damage), Xanthium [6] | activity against weeds [7] | pest or weed control at 500 g/ha ([3]; greenhouse, after three weeks) | degree of damage to the plants (% damage), Echinochloa [8] | degree of damage to the plants (% damage), Ipomoea [9] | degree of damage to the plants (% damage), Polygonum [10] | pest or weed control at 500 g/ha ([5]; greenhouse, after three weeks) | degree of damage to the plants (% damage), Solanum [11] | activity against weeds [21] | degree of damage to the plants (% damage), Alopecurus [22] | degree of damage to the plants (% damage), Galium [23] | other results
1 | CCC(COc1ccccc1)Nc1nc(N)nc(C(F)(F)F)n1 (stereo not drawn) [Example 4] | 100% | 70% | 80% | 100% | strong activity | – | – | – | – | – | – | – | – | – | degree of damage to the plants (% damage), Amaranthus [3, 25]: 100%; degree of damage to the plants (% damage), Setaria [5, 25]: 100%
2 | CCC(CCc1cccs1)Nc1nc(N)nc(C(F)(F)F)n1 (stereo not drawn) [Example 11] | – | – | – | – | strong activity | 100% | 80% | 100% | 100% | 95% | 100% | – | – | – | degree of damage to the plants (% damage), Wheat [12]: 10%
3 | CCC(CCc1ccsc1)Nc1nc(N)nc(C(F)(F)F)n1 (stereo not drawn) [Example 12] | – | – | – | – | strong activity | 100% | 90% | 100% | 100% | 95% | 100% | strong activity | – | – | pest or weed control at 500 g/ha ([13]; greenhouse, after three weeks): 100%; pest or weed control at 500 g/ha ([14]; greenhouse, after three weeks): 100%; degree of damage to the plants (% damage), Datura [15]: 100%; degree of damage to the plants (% damage), Digitaria [16]: 80%; degree of damage to the plants (% damage), Echinochloa [17]: 100%; degree of damage to the plants (% damage), Polygonum [18]: 100%; degree of damage to the plants (% damage), Veronica [19]: 100%; degree of damage to the plants (% damage), Wheat [20]: 0%; degree of damage to the plants (% damage), Wheat [12]: 10%
4 | CCC(CCc1ccsc1)Nc1nc(N)nc(C(C)F)n1 (stereo not drawn) [Example 19] | – | – | – | – | strong activity | 100% | 100% | 100% | 100% | 100% | 100% | strong activity | – | – | pest or weed control at 500 g/ha ([13]; greenhouse, after three weeks): 100%; pest or weed control at 500 g/ha ([14]; greenhouse, after three weeks): 100%; degree of damage to the plants (% damage), Datura [15]: 100%; degree of damage to the plants (% damage), Digitaria [16]: 100%; degree of damage to the plants (% damage), Echinochloa [17]: 100%; degree of damage to the plants (% damage), Polygonum [18]: 100%; degree of damage to the plants (% damage), Veronica [19]: 100%; degree of damage to the plants (% damage), Wheat [20]: 0%
5 | CCC(CCc1ccccn1)Nc1nc(N)nc(C(C)F)n1 (stereo not drawn) [Example 21] | – | – | – | – | – | – | – | – | – | – | – | strong activity | 100% | 80% | pest or weed control at 1000 g/ha [13, 25]: 90%; pest or weed control at 1000 g/ha [14, 25]: 95%; degree of damage to the plants (% damage), Setaria [24]: 90%
6 | CCC(CCc1cccs1)Nc1nc(N)nc(C(C)(C)F)n1 (stereo not drawn) [Example 24] | – | – | – | – | strong activity | 100% | 100% | 100% | 95% | 80% | 95% | – | – | – | –
7 | CC(C)C(CCc1ccc(Cl)cc1)Nc1nc(N)nc(C(C)(C)F)n1 (stereo not drawn) [Example 29] | – | – | – | – | – | – | – | – | – | – | – | strong activity | 70% | 80% | pest or weed control at 1000 g/ha [13]: 80%; pest or weed control at 1000 g/ha [14]: 80%
8 | CCC(CCc1ccccc1)Nc1nc(N)nc(C(F)(F)F)n1 (stereo not drawn) [Example 41] | 100% | 80% | 100% | 100% | strong activity | – | – | – | – | – | – | strong activity | 90% | 95% | pest or weed control at 1000 g/ha [13, 25]: 100%; pest or weed control at 1000 g/ha [14, 25]: 100%; degree of damage to the plants (% damage), Setaria [24]: 100%; pest or weed control at 1000 g/ha [3, 25]: 100%; pest or weed control at 1000 g/ha [5, 25]: 100%
9 | CCC(CCc1ccccc1)Nc1nc(N)nc(C(F)(F)F)n1 (stereo not drawn) [Example 43] | 100% | – | 70% | 100% | strong activity | 100% | – | 100% | 100% | 90% | 100% | – | – | – | degree of damage to the plants (% damage), Amaranthus [3, 25]: 100%; degree of damage to the plants (% damage), Setaria [5, 25]: 100%; degree of damage to the plants (% damage), Wheat [12]: 10%
10 | CCC(COc1ccc(Cl)cc1)Nc1nc(N)nc(C(F)(F)F)n1 (stereo not drawn) [Example 44] | 100% | 80% | 80% | 100% | strong activity | – | – | – | – | – | – | – | – | – | pest or weed control at 1000 g/ha [3]: 100%; pest or weed control at 1000 g/ha [5]: 100%
11 | CCC(CCc1ccccc1)Nc1nc(N)nc(C(F)(F)F)n1 (stereo not drawn) [Example 45] | 100% | 80% | 100% | 80% | strong activity | – | – | – | – | – | – | strong activity | 80% | 100% | degree of damage to the plants (% damage), Abutilon [13, 25]: 100%; degree of damage to the plants (% damage), Amaranthus [14, 25]: 100%; degree of damage to the plants (% damage), Setaria [24]: 95%; degree of damage to the plants (% damage), Amaranthus [3, 25]: 100%; degree of damage to the plants (% damage), Setaria [5, 25]: 100%
